Data set [1] in a line: Stability toward oxidation. The data set is classed as physicochemical. Conditions: compared with unblocked peptide.
Data set [2] relates to mouse B16-F10 melanoma cells. The experiment in a line: Boyden chamber assay, TSP-1 mediated invasion of collagen (Examples 29, 30). Type of data set: cell-based. The note with it: for dose-dependent effect on melanoma cell invasion: FIG. 19. How it is done: Cell invasion was investigated by the Boyden Chamber Invasion Assay using the modified Boyden chamber. T. Frandsen et al., Fibrinolysis, 6: 71-76 (1992). Polycarbonate filters, 12 μm pore size, e.g., Millicell, Millipore Corporation, Bedford, Ma, were coated with 100 μg Type IV collagen (1 mg/ml 60% EtOH) and dried overnight at 25° C. Blind-well Boyden chambers are filled with 600 μl of serum-free media containing 0.1% BSA in the lower compartment, and the coated filters will be mounted in the chamber. Approximately 50,000 cells (tested to be greater than 95% viable) suspended in 400 μl of the same media will be placed in the upper chamber of the apparatus and allowed to settle onto the collagen-coated membrane. Varying concentrations of TSP-1 (0-150 nM) will be placed in the lower compartment and any neutralizing antibodies as well as peptides will be placed in the upper chamber. After an incubation period of about 3 to 6 hours at 37° C., the cells on the upper surface of the filter will be removed with a cotton swab. The filters are then fixed in 3% glutaraldehyde solution and stained with 0.5% crystal violet solution. Invasive cells adhering to the under-surface of the filter are counted using a phase contrast microscope (400×).
Using this assay, mouse B16-F10 melanoma cells (50,000) were plated on the collagen-coated disk of the Boyden chamber apparatus. The top chamber contained melanoma cells in the presence of 500 μg/ml of the TSP-1 derived peptide and the bottom chamber contained 20 μg/ml TSP-1. After 6 hours, cells traversing the collagen were counted as cells attached to the underside of the collagen-coated disk. Five representative fields per chamber in duplicate were counted. The data shown in FIG. 18 represents the average per field and the error bars represent the standard deviation. The scrambled peptide, Val-Cys-Thr-Gly-Ser-Cys (SEQ ID NO: 7), the irrelevant peptide, Ala-Ser-Val-Thr-Ala-Arg (SEQ ID NO: 38), buffer, and the d-amino acid Cys-Ser-Val-Thr-Cys-Gly (SEQ ID NO: 40) had no effect on invasion.
The experiments were performed as described for Example 29. […] In contrast, d-Cys-Ser-Val-Thr-Cys-Gly (SEQ ID NO: 40) had no effect.

In data set [3] the test system is mouse B16-F10 melanoma cells. The experiment in a line: Melanoma lung metastasis, one bolus i.v. or i.p. (Example 22). The data set is classed as in vivo. How it is done:
One bolus injection of Cys-(Acm)-Ser-Val-Thr-Cys-(Acm)-Gly (SEQ ID NO: 6) peptide (1 mg/mouse intravenously or 5 mg/mouse intraperitoneally ) was administered followed by intravenous injection of mouse B16-F10 melanoma cells (100,000). Each treatment group consisted of 5 animals. After 10 days animals were sacrificed and lung tumors counted. […] Error bars represent the standard error of the mean. P values between control and peptide-treated groups <0.001.

Data set [4] relates to mouse B16-F10 melanoma cells. The experiment in a line: Melanoma lung metastasis, daily i.p. from day 3 after implantation (Example 23). Type of data set: in vivo, mice. Conditions: daily i.p. for 10 days from day 3, FIG. 14. How it is done: Mice were intravenously injected with mouse B16-F10 melanoma cells (75,000). After 3 days, each mouse was treated daily by intraperitoneal injection with either PBS, 0.01 mg, or 1 mg of peptide for 10 days. Treatment groups consisted of 5 mice. After 10 days animals were sacrificed and lung tumors counted. Error bars represent the standard error of the mean. p<0.001 between control- and peptide-treated groups.

The test system of data set [5] is mouse B16-F10 melanoma cells. As to the kind of experiment: Direct adhesion to dried peptide (Example 31). Conditions: 10 μg of each peptide; one hour; FIG. 20. Type of data set: cell-based. How it is done:
Peptide effect on direct adhesion was tested by drying 10 μg of each peptide on the bottom of a 96well microtiter plate. Plates were blocked with BSA. Mouse B16-F10 melanoma cells (50,000) were plated in each well and allowed to attach for one hour. Non-adherent cells were aspirated out, plates rinsed, and adherent cells were fixed, stained, and counted. The error bars represent the standard deviation.

Data set [6] deals with mouse B16-F10 melanoma cells. As to the kind of experiment: Tumor cell metastasis, one i.p. injection of peptide (Example 32). The data set is classed as in vivo. Conditions: 1 mg peptide i.p. once; 14 days; FIG. 21. On the procedure:
Mouse B16-F10 melanoma cells (75,000 ) were injected intravenously and was immediately followed by one intraperitoneal injection of 1 mg of peptide. Six animals were treated with each peptide. Animals were sacrificed 14 days later and lung colonies counted. The data shown in FIG. 21 represents the mean of lung colonies and the error bars represent the standard error of the mean. The peptides, d-Gly-Cys-(Acm)-Thr-Val-Ser-Cys-(Acm) (retroinverso) (SEQ ID NO: 35), and l-Cys-(Acm)-Ser-Val-Thr-Cys-(Acm)-Gly (SEQ ID NO: 6) inhibited metastasis by more than 80%, whereas d-Cys-Ser-Val-Thr-Cys-Gly (SEQ ID NO: 40) had no effect.

The subject of data set [7] is platelets (platelet-rich-plasma). As to the kind of experiment: Platelet aggregation assay in platelet-rich-plasma (Example 8). The data set is classed as cell-based. The note with it: in vitro; FIG. 22. How it is done: Platelet aggregation was monitored on a single-channel aggregometer equipped to measure luminescence (Chromo-Log, Havertown, Pa.). Platelet-rich-plasma (PRP) was obtained from whole blood anticoagulated with 0.38% sodium citrate by centrifugation at 150×g for 20 minutes.
0.5 ml aliquots of platelet-rich-plasma were aggregated by stirring with 2 uM ADP in the presence of various concentrations of Cys-Ser-Val-Thr-Cys-Gly (SEQ ID NO: 21) and Gly-Arg-Gly-Asp-Ser (SEQ ID NO: 36). Aggregation was measured at 37° as decrease in optical absorbance vs. time in a chrono-log aggregometer and is shown in FIG. 8. Peptides designated in each panel are represented by their amino acid sequence using the one letter amino acid code.

The test system of data set [8] is platelets on absorbed thrombospondin (TSP). As to the kind of experiment: Competitive platelet adhesion assay, absorbed thrombospondin (Example 19). The note with it: 250 μg/ml; absorbed protein TSP. The data set is classed as cell-based. How it is done:
(§1) The direct adhesion assay of Example 18 was modified to measure the ability of the peptide compounds of the invention to compete with intact thrombospindin or fibronectin for adhesion of platelets.
(§2) In this assay, thrombospondin (TSP) or fibronectin (FN) was absorbed onto microtiter dish as described in Example 18. The assay was similar to Example 18 except that before platelets were added to the microtiter dishes they were preincubated with 250 μg/ml of various ligands.

Data set [9] relates to B16 F10 mouse melanoma cells. As to the kind of experiment: Antimetastatic activity in vivo (Example 20). Also on record: species or system C57 black mice. Conditions: 16 days.
For data set [10], the system named is platelets on absorbed fibronectin (FN). The experiment in a line: Competitive platelet adhesion assay, absorbed fibronectin (Example 19). Type of data set: cell-based. Conditions: 250 μg/ml; absorbed protein FN. How it is done: as §1, §2
The subject of data set [11] is Mouse B16 F10 melanoma cells. The experiment in a line: Direct adhesion assay (Example 16). The note with it: absorbed compound 2 μg. The data set is classed as cell-based. On the procedure:
It is believed that thrombospondin acts in metastasis through its adhesive properties. An assay was developed, generally in accordance with the disclosure of Tuszynski et al., Anal. Bio., 184:189-91 (1990), which evaluates the ability of melanoma cells to adhere to the thrombospondin fragments or analogs of the invention. In this assay, wells of a 96-well microtiter dish (Costar, Cambridge, Mass.) were incubated for two to three hours with […] of a […] solution of various ligands in 20 mM NaCl, pH 7.3. Thrombospondin (purified by the method of Tuszynski et al., J. Biol. Chem., 260:12240-5 (1985), fibronectin (Sigma Chemical Co., Missouri) served as the positive control. Bovine serum albumin (BSA) (Sigma Chemical Co.) served as the negative control. Thrombospondin analogs of the invention p1, p5 and p6 were synthesized as described in Examples 1 through 3. Following peptide adhesion to the microtiter dish, the wells were aspirated, treated with 200 μl phosphate buffered saline (PBS) containing 1% BSA for 1 hour and then washed three more times with 200 μl PBS.
Mouse B16 F10 melanoma cells were grown and harvested during log phase of growth using standard procedures. The harvested cells were washed two times in serum-free Dulbecco's minimum essential medium (DMEM) (Flow Laboratories) and suspended in DMEM at a final concentration of 4×10^5 cells/ml. Of the cell suspension 100 μl was added to each well of the microtiter dish containing the various ligands and the dish incubated at 37° C. in a CO2 incubator for 1 hour. Nonadherent cells were removed by aspiration and the wells washed three times with 200 μl of PBS. The total cell-associated protein was determined by dissolving the attached cells directly in the microtiter wells with 200 μl of the Pierce BCA working solution (Pierce Chem. Co. Booklet No. 23225 (1987)). […] Plates were allowed to cool to room temperature, cover sheets were removed, and the absorbance of each well was determined at 562 nm with a microtiter plate reader (Biotek, Burlington, Vt.)

For data set [12], the system named is melanoma cells on absorbed thrombospondin. The experiment in a line: Competitive assay, thrombospondin specific adhesion to melanoma cells (Example 17). The data set is classed as cell-based, mouse. The text has this:
The direct adhesion assay of Example 16 was modified to measure the ability of the peptide compounds of the invention to compete with intact thrombospondin for adhesion to melanoma cells.
In this assay, intact thrombospondin is absorbed onto microtiter dishes as described in Example 16. […]

Results on three substances are retold here after patent US6339062B1, “Retroinverso polypeptides that mimic or inhibit thrombospondin activity” (Inkine Pharmaceutical Company, Inc., priority 1998, dated 2002).

Where no end group is shown, it is not given here. [ ]: non-standard residue; d: D form. The star is where a group is joined. Acm = CC(=O)NC*; For = O=C*

With C(Acm)SVTC(Acm)G, the stability toward oxidation result in [1] is listed as “more stable toward oxidation”. Besides, in data set [2], the “dose-dependent effect on melanoma cell invasion” value is listed as “same dose-dependent inhibition”. Further, the “blocking activity in metastasis and the other assays, peptide versus blocked analogue” value in [3] (mouse, in vivo) is recorded as “identical blocking activity”. Also, in data set [3] (one bolus, 1 mg/mouse i.v. or 5 mg/mouse i.p., 10 days), the “fewer lung metastasis as compared to saline or scrambled peptide controls” value is recorded as 80%. In data set [3] (one bolus, 10 days), the large lung metastases result is “few large lung metastases”. Moreover, the “reduction in lung colonies with respect to buffer-treated” value in data set [4] (0.01 mg/ml-treated animals) was 27%. Further, in [4] (1 mg/ml treated animals), the “suppression of melanoma colonies” value was “more than 80%”. For the same substance, in [5], the “adhesion of cells to dried peptide” value is “half as well as fibronectin and TSP-1”.

Consider “[dC]SVTCG (cysteine pairing not given here)”, for which the “inhibition of TSP-1 mediated invasion” value in data set [2] (500 μg/ml peptide top chamber, 20 μg/ml TSP-1 bottom chamber, 6 hours, FIG. 18) is “no effect”. Besides, the “dose-dependent effect on melanoma cell invasion” value in data set [2] is given as “no effect”. Further, the “adhesion of cells to dried peptide” value in [5] is recorded as “did not promote adhesion”. Also, in data set [6], the “inhibition of metastasis (lung colonies)” value is on record as “no effect”.

Consider “fTrp-Ser-Pro-Cys-Ser-Val-Thr-Cys-Gly-NH2 (For-WSPCSVTCG-NH2; cysteine pairing not given here) [p5]”, for which the platelet aggregation entry in [7] is reported as “inhibit platelet aggregation”. Moreover, the “% Buffer Control (platelet adhesion)” value in data set [8] is on record as 107%; in [10] it was 109%. For the same substance, the “% buffer control (number of lung tumors)” value in data set [9] (30 μg/mouse) came out at 87%. Also, the “number of tumors compared with controls” value in data set [9] is on record as “statistically fewer tumors than controls”. The “Adhesion as % Thrombospondin” value is “display adhesive properties” in data set [11] and 79% in data set [11] (listed as P5). The “% of Buffer Control (melanoma cell adhesion to thrombospondin)” value in [12] (10 μg/ml) came out at 99%; in data set [12] (50 μg/ml), 104%; in data set [12] (200 μg/ml) it was 89%; in data set [12] (300 μg/ml), 83%.
